Test results as given in patent publication US20250197372A1 (priority 2020, published 2025).

Each molecule was assayed against T1, recombinant human GBA (beta-glucocerebrosidase) (Homo sapiens, UniProt P04062) (assay: Beta-glucocerebrosidase (GBA, glucosylceramidase) assay (4-methylumbelliferyl-beta-D-pyranoside substrate, fluorescence)).
T1 sequence (P04062 40-536): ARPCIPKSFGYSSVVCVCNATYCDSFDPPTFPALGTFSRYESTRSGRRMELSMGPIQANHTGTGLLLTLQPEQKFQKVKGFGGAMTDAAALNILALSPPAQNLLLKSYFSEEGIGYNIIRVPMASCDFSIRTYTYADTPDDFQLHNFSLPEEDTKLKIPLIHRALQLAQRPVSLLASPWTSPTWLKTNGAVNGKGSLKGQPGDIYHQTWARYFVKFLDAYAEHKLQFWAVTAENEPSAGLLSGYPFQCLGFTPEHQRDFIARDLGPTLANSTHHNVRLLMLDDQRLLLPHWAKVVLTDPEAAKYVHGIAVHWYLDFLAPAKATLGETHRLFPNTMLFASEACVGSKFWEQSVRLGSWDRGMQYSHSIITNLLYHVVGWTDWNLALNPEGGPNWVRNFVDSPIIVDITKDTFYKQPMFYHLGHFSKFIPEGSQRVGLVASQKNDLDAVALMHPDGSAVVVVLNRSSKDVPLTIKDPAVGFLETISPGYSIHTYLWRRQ
Type: biochemical
How it was run: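 IC50 by four-parameter fit of percent inhibition, with product fluorescence (365/440 nm) read after a glycine/NaOH pH 10 stop. Compound and commercial recombinant human enzyme were incubated 60 min at 37 °C before a further 60 min at 37 °C with 4-methylumbelliferyl-beta-D-pyranoside substrate.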

| SMILES | IC50 [µM] |
| --- | --- |
| COCCc1ccc(CCCN2C[C@H](O)[C@@H](O)[C@H](O)[C@H]2CO)cc1 [Compound 1308, (2R,3R,4R,5S)-2-(hydroxymethyl)-1-{3-[4-(2-methoxyethyl)phenyl]propyl}piperidine-3,4,5-triol] | 50.9 |
| OC[C@@H]1[C@@H](O)[C@H](O)[C@@H](O)CN1CCCCCCNc1ccc(-c2ncccn2)cc1Cl [Compound 1228, (2R,3R,4R,5S)-1-(6-{[2-chloro-4-(pyrimidin-2-yl)phenyl]amino}hexyl)-2-(hydroxymethyl)piperidine-3,4,5-triol] | 0.838 |
| [N-]=[N+]=Nc1ccc(NCCOC(=O)NCCN2C[C@H](O)[C@@H](O)[C@H](O)[C@H]2CO)c([N+](=O)[O-])c1 [Compound 1268, 2-[(4-azido-2-nitrophenyl)amino]ethyl N-{2-[(2R,3R,4R,5S)-3,4,5-trihydroxy-2-(hydroxymethyl)piperidin-1-yl]ethyl}carbamate] | 1.52 |
| [N-]=[N+]=Nc1ccc(NCCn2cc(CCN3C[C@H](O)[C@@H](O)[C@H](O)[C@H]3CO)nn2)c([N+](=O)[O-])c1 [Compound 1272, (2R,3R,4R,5S)-1-[2-(1-{2-[(4-azido-2-nitrophenyl)amino]ethyl}-1H-1,2,3-triazol-4-yl)ethyl]-2-(hydroxymethyl)piperidine-3,4,5-triol] | 4.1 |
| [N-]=[N+]=Nc1ccc(NCCN2CCN(CCN3C[C@H](O)[C@@H](O)[C@H](O)[C@H]3CO)CC2)c([N+](=O)[O-])c1 [Compound 1273, (2R,3R,4R,5S)-1-[2-(4-{2-[(4-azido-2-nitrophenyl)amino]ethyl}piperazin-1-yl)ethyl]-2-(hydroxymethyl)piperidine-3,4,5-triol] | 2.98 |
| NS(=O)(=O)c1cc(-c2ncccn2)ccc1NCCCCCCN1C[C@H](O)[C@@H](O)[C@H](O)[C@H]1CO [Compound 1265, 5-(pyrimidin-2-yl)-2-({6-[(2R,3R,4R,5S)-3,4,5-trihydroxy-2-(hydroxymethyl)piperidin-1-yl]hexyl}amino)benzene-1-sulfonamide] | 5.08 |
| [N-]=[N+]=Nc1ccc(NCCN(CCC(N)=O)CCN2C[C@H](O)[C@@H](O)[C@H](O)[C@H]2CO)c([N+](=O)[O-])c1 [Compound 1235] | 11.4 |
| Cc1cc(Br)cc(NCc2cccc(CN3C[C@H](O)[C@@H](O)[C@H](O)[C@H]3CO)c2)c1 [Compound 1021, (2R,3R,4R,5S)-1-[(3-{[(3-bromo-5-methylphenyl)amino]methyl}phenyl)methyl]-2-(hydroxymethyl)piperidine-3,4,5-triol] | 25.8 |
| Nc1ccc(NCCn2cc(CCN3C[C@H](O)[C@@H](O)[C@H](O)[C@H]3CO)nn2)c([N+](=O)[O-])c1Cl [Compound 1253, (2R,3R,4R,5S)-1-[2-(1-{2-[(4-amino-3-chloro-2-nitrophenyl)amino]ethyl}-1H-1,2,3-triazol-4-yl)ethyl]-2-(hydroxymethyl)piperidine-3,4,5-triol] | > 100 |
| OC[C@@H]1[C@@H](O)[C@H](O)[C@@H](O)CN1Cc1ccc(CNc2ccc(Br)cc2)cc1 [Compound 1028, (2R,3R,4R,5S)-1-[(4-{[(4-bromophenyl)amino]methyl}phenyl)methyl]-2-(hydroxymethyl)piperidine-3,4,5-triol] | 12.9 |
| [N-]=[N+]=Nc1ccc(NCCS(=O)(=O)CCCN2C[C@H](O)[C@@H](O)[C@H](O)[C@H]2CO)c([N+](=O)[O-])c1 [Compound 1274, (2R,3R,4R,5S)-1-(3-{2-[(4-azido-2-nitrophenyl)amino]ethane-sulfonyl}propyl)-2-(hydroxymethyl)piperidine-3,4,5-triol] | 2.99 |
| N#Cc1cc(-c2ncccn2)ccc1NCCCCCCN1C[C@H](O)[C@@H](O)[C@H](O)[C@H]1CO [Compound 1256, 5-(pyrimidin-2-yl)-2-({6-[(2R,3R,4R,5S)-3,4,5-trihydroxy-2-(hydroxymethyl)piperidin-1-yl]hexyl}amino)benzonitrile] | 1.23 |
| O=[N+]([O-])c1cc(Br)ccc1NCc1ccc(CN2C[C@H](O)[C@@H](O)[C@H](O)[C@H]2CO)cc1 [Compound 1030, (2R,3R,4R,5S)-1-[(4-{[(4-bromo-2-nitrophenyl)amino]methyl}phenyl)methyl]-2-(hydroxymethyl)piperidine-3,4,5-triol] | 32.3 |
| [N-]=[N+]=Nc1ccc(NCCNS(=O)(=O)NCCN2C[C@H](O)[C@@H](O)[C@H](O)[C@H]2CO)c([N+](=O)[O-])c1 [Compound 1275, (2R,3R,4R,5S)-1-{2-[({2-[(4-azido-2-nitrophenyl)amino]ethyl}sulfamoyl)amino]ethyl}-2-(hydroxymethyl)piperidine-3,4,5-triol] | 2.17 |
| OC[C@@H]1[C@@H](O)[C@H](O)[C@@H](O)CN1CCCCCCNc1cc(Cl)cc(-c2ncccn2)c1 [Compound 1212, (2R,3R,4R,5S)-1-(6-{[3-chloro-5-(pyrimidin-2-yl)phenyl]amino}hexyl)-2-(hydroxymethyl)piperidine-3,4,5-triol] | 0.386 |
| COc1cc(NCCCCCCN2C[C@H](O)[C@@H](O)[C@H](O)[C@H]2CO)cc(-c2ncco2)c1 [Compound 1216, (2R,3R,4R,5S)-2-(hydroxymethyl)-1-(6-{[3-methoxy-5-(1,3-oxazol-2-yl)phenyl]amino}hexyl)piperidine-3,4,5-triol] | 2.14 |
| Cc1cc(NCc2ccc(CN3C[C@H](O)[C@@H](O)[C@H](O)[C@H]3CO)cc2)cc(-c2ccco2)c1 [Compound 1317, (2R,3R,4R,5S)-1-{[4-({[3-(furan-2-yl)-5-methylphenyl]amino}methyl)phenyl]methyl}-2-(hydroxymethyl)piperidine-3,4,5-triol] | 45.1 |
| [N-]=[N+]=Nc1ccc(N2CCN(CCN3C[C@H](O)[C@@H](O)[C@H](O)[C@H]3CO)CC2)c([N+](=O)[O-])c1 [Compound 1254, (2R,3R,4R,5S)-1-{2-[4-(4-azido-2-nitrophenyl)piperazin-1-yl]ethyl}-2-(hydroxymethyl)piperidine-3,4,5-triol] | > 100 |
| N#Cc1ccc(NCCCCCCN2C[C@H](O)[C@@H](O)[C@H](O)[C@H]2CO)c([N+](=O)[O-])c1 [Compound 1304, 3-nitro-4-({6-[(2R,3R,4R,5S)-3,4,5-trihydroxy-2-(hydroxymethyl)piperidin-1-yl]hexyl}amino)benzonitrile] | 0.043 |
| N#Cc1cc(NCc2cccc(CN3C[C@H](O)[C@@H](O)[C@H](O)[C@H]3CO)c2)cc(N2CCOCC2)c1 [Compound 1042, 3-(morpholin-4-yl)-5-{[(3-{[(2R,3R,4R,5S)-3,4,5-trihydroxy-2-(hydroxymethyl)piperidin-1-yl]methyl}phenyl)methyl]amino}benzonitrile] | > 100 |
| [N-]=[N+]=Nc1ccc(N2CC(OCCN3C[C@H](O)[C@@H](O)[C@H](O)[C@H]3CO)C2)c([N+](=O)[O-])c1 [Compound 1252, (2R,3R,4R,5S)-1-(2-{[1-(4-azido-2-nitrophenyl)azetidin-3-yl]oxy}ethyl)-2-(hydroxymethyl)piperidine-3,4,5-triol] | 8.67 |
| OC[C@@H]1[C@@H](O)[C@H](O)[C@@H](O)CN1Cc1cccc(CNc2cc(-c3ncccn3)cc(C3CC3)c2)n1 [Compound 1333, (2R,3R,4R,5S)-1-{[6-({[3-cyclopropyl-5-(pyrimidin-2-yl)phenyl]amino}methyl)pyridin-2-yl]methyl}-2-(hydroxymethyl)piperidine-3,4,5-triol] | > 100 |
| NC(=O)c1cc(-c2ncccn2)ccc1NCCCCCCN1C[C@H](O)[C@@H](O)[C@H](O)[C@H]1CO [Compound 1266, 5-(pyrimidin-2-yl)-2-({6-[(2R,3R,4R,5S)-3,4,5-trihydroxy-2-(hydroxymethyl)piperidin-1-yl]hexyl}amino)benzamide] | 6.34 |
| O=S(=O)(Nc1cc(-c2ncccn2)ccc1NCCCCCCN1C[C@H](O)[C@@H](O)[C@H](O)[C@H]1CO)C1CC1 [Compound 1227, N-[5-(pyrimidin-2-yl)-2-({6-[(2R,3R,4R,5S)-3,4,5-trihydroxy-2-(hydroxy-methyl)piperidin-1-yl]hexyl}amino)phenyl]cyclopropanesulfonamide] | 0.592 |
